Data from patent US20240409553A1, “HETEROCYCLIC NLRP3 INHIBITORS” (Hoffmann-La Roche Inc., priority 2021, published 2024).
Where a name gives a salt, the structure may show the parent alone.

What was measured:
NLRP3 [1] = target: T1, NLRP3 (Homo sapiens, UniProt Q96P20); experiment: THP-1 cells pyroptosis assay (LPS priming, nigericin, resazurin readout); assay type: cell-based; design: Seed THP-1 cells (25,000 cells/well) containing 1.0 μg/ml LPS; host or cells: THP-1 cells, LPS-primed, nigericin-stimulated; conditions: 1 μg/ml LPS, 3 h compound, 5 μM nigericin 1 hr
Protocol: THP-1 cells (ATCC #TIB-202) were grown in RPMI containing L-glutamine (Gibco #11835) supplemented with 1 mM sodium pyruvate (Sigma #S8636) and penicillin (100 units/ml)/streptomycin (0.1 mg/ml) (Sigma #P4333) in 10% Fetal Bovine Serum (FBS) (Sigma #F0804). The cells were routinely passaged and grown to confluency (˜10^6 cells/ml). On the day of the experiment, THP-1 cells were harvested and resuspended into RPMI medium (without FBS). The cells were then counted and viability (>90%) checked by Trypan blue (Sigma #T8154). Appropriate dilutions were made to give a concentration of 625,000 cells/ml. To this diluted cell solution was added LPS (Sigma #L4524) to give a 1 μg/ml Final Assay Concentration (FAC). 40 μl of the final preparation was aliquoted into each well of a 96-well plate. The plate thus prepared was used for compound screening.
The following method step-by-step assay was followed for compound screening. • 1. Seed THP-1 cells (25,000 cells/well) containing 1.0 μg/ml LPS in 40 μl of RPMI medium (without FBS) in 96-well, black walled, clear bottom cell culture plates coated with poly-D-lysine (VWR #734-0317) • 2. Add 5 μl compound (8 points half-log dilution, with 10 μM top dose) or vehicle (DMSO 0.1% FAC) to the appropriate wells • 3. Incubate for 3 hours at 37° C., 5% CO2 • 4. Add 5 μl nigericin (Sigma #N7143) (FAC 5 μM) to all wells • 5. Incubate for 1 hr at 37° C., 5% CO2 • 6. At the end of the incubation period, spin plates at 300×g for 3 mins and remove supernatant • 7. Then add 50 μl of resazurin (Sigma #R7017) (FAC 100 μM resazurin in RPMI medium without FBS) and incubate plates for a further 1-2 hours at 37° C. and 5% CO2 • 8. Plates were read in an Envision reader at Ex 560 nm and Em 590 nm • 9. IC50 data is fitted to a non-linear regression equation (log inhibitor vs response-variable slope 4-parameters)

NLRP3 [2] = target: T1, NLRP3; experiment: Human whole blood IL-1β release assay (LPS, nigericin, AlphaLisa); assay type: cell-based; design: Plate out 80 μl of whole blood containing 1 μg/ml of LPS; from tissue; host or cells: human whole blood from healthy donors, LPS-primed, nigericin-stimulated; conditions: 1 μg/ml LPS, 3 h compound, 10 μM nigericin 1 hr, IL-1β in supernatant, read-out: Human whole blood IB-1β Assay IC50
Protocol: For systemic delivery, the ability to inhibit NLRP3 when the compounds are present within the bloodstream is of great importance. For this reason, the NLRP3 inhibitory activity of a number of compounds in human whole blood was investigated in accordance with the following protocol.
Human whole blood in Li-heparin tubes was obtained from healthy donors from a volunteer donor panel. • 1. Plate out 80 μl of whole blood containing 1 μg/ml of LPS in 96-well, clear bottom cell culture plate (Corning #3585) • 2. Add 10 μl compound (8 points half-log dilution with 10 μM top dose) or vehicle (DMSO 0.10% FAC) to the appropriate wells • 3. Incubate for 3 hours at 37° C., 5% CO2 • 4. Add 10 μl nigericin (Sigma #N7143) (10 μM FAC) to all wells • 5. Incubate for 1 hr at 37° C., 5% CO2 • 6. At the end of the incubation period, spin plates at 300×g for 5 mins to pellet cells and remove 20 μl of supernatant and add to 96-well v-bottom plates for IL-1β analysis (note: these plates containing the supernatants can be stored at −80° C. to be analysed at a later date) • 7. IL-1β was measured according to the manufacturer protocol (Perkin Elmer-AlphaLisa IL-1 Kit AL220F-5000) • 8. IC50 data is fitted to a non-linear regression equation (log inhibitor vs response-variable slope 4-parameters)

T1 sequence (Q96P20 whole entry): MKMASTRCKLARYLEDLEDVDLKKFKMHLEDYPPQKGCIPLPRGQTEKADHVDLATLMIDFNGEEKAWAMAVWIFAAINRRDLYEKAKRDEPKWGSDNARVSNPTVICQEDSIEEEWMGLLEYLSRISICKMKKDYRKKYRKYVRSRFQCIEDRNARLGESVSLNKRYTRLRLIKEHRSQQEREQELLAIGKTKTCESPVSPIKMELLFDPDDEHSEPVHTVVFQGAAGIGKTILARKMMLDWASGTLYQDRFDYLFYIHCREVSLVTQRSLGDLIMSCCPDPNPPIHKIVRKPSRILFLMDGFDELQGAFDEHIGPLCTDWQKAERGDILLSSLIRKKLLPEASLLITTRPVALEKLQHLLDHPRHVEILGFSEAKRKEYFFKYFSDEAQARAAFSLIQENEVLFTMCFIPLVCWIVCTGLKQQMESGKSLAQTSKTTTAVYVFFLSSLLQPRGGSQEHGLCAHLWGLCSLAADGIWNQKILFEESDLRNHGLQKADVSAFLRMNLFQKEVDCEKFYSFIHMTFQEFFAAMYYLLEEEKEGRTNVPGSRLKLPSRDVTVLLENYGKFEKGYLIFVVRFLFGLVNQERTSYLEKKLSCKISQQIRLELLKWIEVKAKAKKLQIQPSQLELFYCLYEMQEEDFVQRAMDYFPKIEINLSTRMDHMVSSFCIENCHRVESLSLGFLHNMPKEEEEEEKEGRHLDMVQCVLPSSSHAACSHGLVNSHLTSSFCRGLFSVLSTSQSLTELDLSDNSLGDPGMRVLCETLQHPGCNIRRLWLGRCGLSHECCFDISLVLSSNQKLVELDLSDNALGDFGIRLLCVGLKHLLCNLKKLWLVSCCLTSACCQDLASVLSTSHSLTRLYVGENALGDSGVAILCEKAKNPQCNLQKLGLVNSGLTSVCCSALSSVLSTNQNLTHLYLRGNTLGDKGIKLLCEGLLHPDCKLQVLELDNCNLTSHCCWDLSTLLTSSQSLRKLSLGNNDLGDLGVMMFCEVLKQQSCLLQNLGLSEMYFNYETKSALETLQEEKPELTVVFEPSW

Structure (SMILES): CCN1CCCC(Nc2nnc(-c3ccc(C(F)(F)F)cc3)c3sccc23)C1 (racemic) [Example 4, (rac)-N-(1-ethyl-3-piperidyl)-7-[4-(trifluoromethyl)phenyl]thieno[2,3-d]pyridazin-4-amine]
- IC50 (NLRP3 [1]): 52.4 nM
- IC50 (NLRP3 [2]): 0.328 nM

Structure (SMILES): CCN1CCC[C@@H](Nc2nnc(-c3ccc(C(F)(F)F)cc3O)c3onc(C)c23)C1 [Example 13, 2-[4-[[(3R)-1-Ethyl-3-piperidyl]amino]-3-methyl-isoxazolo[4,5-d]pyridazin-7-yl]-5-(trifluoromethyl)phenol]
- IC50 (NLRP3 [1]): 18 nM
- IC50 (NLRP3 [2]): 2.6 nM

Structure (SMILES): CCN1CCC[C@@H](Nc2nnc(-c3ccc(C(F)(F)F)cc3O)c3cnn(C)c23)C1 [Example 9, 2-[7-[[(3R)-1-Ethyl-3-piperidyl]amino]-1-methyl-pyrazolo[3,4-d]pyridazin-4-yl]-5-(trifluoromethyl)phenol]
- IC50 (NLRP3 [1]): 2.7 nM
- IC50 (NLRP3 [2]): 0.217 nM

Structure (SMILES): CCN1CCCC(Nc2nnc(-c3ccc(C(F)(F)F)cc3)c3ccsc23)C1 (racemic) [Example 3, (rac)-N-(1-ethyl-3-piperidyl)-4-[4-(trifluoromethyl)phenyl]thieno[2,3-d]pyridazin-7-amine]
- IC50 (NLRP3 [1]): 57.2 nM
- IC50 (NLRP3 [2]): 0.091 nM

Structure (SMILES): CCN1CCC[C@@H](Nc2nnc(-c3ccc(C(F)(F)F)cc3O)c3occc23)C1 [Example 7, 2-[4-[[(3R)-1-ethyl-3-piperidyl]amino]furo[2,3-d]pyridazin-7-yl]-5-(trifluoromethyl)phenol]
- IC50 (NLRP3 [1]): 9.1 nM
- IC50 (NLRP3 [2]): 0.592 nM

Structure (SMILES): CCN1CCC[C@@H](Nc2nnc(-c3ccc4c(c3O)CC4)c3c2cnn3C)C1 [Example 18, 3-[4-[[(3R)-1-Ethyl-3-piperidyl]amino]-1-methyl-pyrazolo[3,4-d]pyridazin-7-yl]bicyclo[4.2.0]octa-1(6),2,4-trien-2-ol]
- IC50 (NLRP3 [1]): 2.2 nM
- IC50 (NLRP3 [2]): 0.033 nM

Structure (SMILES): CCN1CCCC(Nc2nnc(-c3ccc(C(F)(F)F)cc3O)c3sccc23)C1 (racemic) [Example 2, (rac)-2-[4-[(1-Ethyl-3-piperidyl)amino]thieno[2,3-d]pyridazin-7-yl]-5 (trifluoromethyl)phenol; formic acid]
- IC50 (NLRP3 [1]): 3.5 nM
- IC50 (NLRP3 [2]): 0.349 nM

Structure (SMILES): CCN1CCC[C@@H](Nc2nnc(-c3ccc4c(c3O)CCO4)c3c2cnn3C)C1 [Example 17, 5-[4-[[(3R)-1-Ethyl-3-piperidyl]amino]-1-methyl-pyrazolo[3,4-d]pyridazin-7-yl]-2,3-dihydrobenzofuran-4-ol]
- IC50 (NLRP3 [1]): 3.6 nM
- IC50 (NLRP3 [2]): 0.015 nM

Structure (SMILES): CCN1CCC[C@@H](Nc2nnc(-c3ccc(C(F)(F)F)cc3O)c3c2ccn3C)C1 [Example 5-TFA, 2-[4-[[(3R)-1-ethyl-3-piperidyl]amino]-1-methyl-pyrrolo[2,3-d]pyridazin-7-yl]-5-(trifluoromethyl)phenol; 2,2,2-trifluoroacetic acid]
- IC50 (NLRP3 [1]): 12.4 nM
- IC50 (NLRP3 [2]): 0.028 nM

Structure (SMILES): CCN1CCC[C@@H](Nc2nnc(-c3c(C)cc(C(F)(F)F)cc3O)c3[nH]ncc23)C1 [Example 14, 2-[4-[[(3R)-1-ethyl-3-piperidyl]amino]-1H-pyrazolo[3,4-d]pyridazin-7-yl]-3-methyl-5-(trifluoromethyl)phenol; 2,2,2-trifluoroacetic acid]
- IC50 (NLRP3 [1]): 7.8 nM
- IC50 (NLRP3 [2]): 0.111 nM

Structure (SMILES): CCN1CCC[C@@H](Nc2nnc(-c3ccc(C(F)(F)F)cc3O)c3c2cnn3C)C1 [Example 6, 2-[4-[[(3R)-1-Ethyl-3-piperidyl]amino]-1-methyl-pyrazolo[3,4-d]pyridazin-7-yl]-5-(trifluoromethyl)phenol; 2,2,2-trifluoroacetic acid]
- IC50 (NLRP3 [1]): 3.5 nM
- IC50 (NLRP3 [2]): 0.028 nM

Structure (SMILES): CCN1CCC[C@@H](Nc2nnc(-c3ccc(C(F)(F)F)cc3O)c3c2ccn3C)C1 [Example 5-HCl, 2-[4-[[(3R)-1-Ethyl-3-piperidyl]amino]-1-methyl-pyrrolo[2,3-d]pyridazin-7-yl]-5-(trifluoromethyl)phenol; hydrochloride]
- IC50 (NLRP3 [1]): 11.6 nM

Structure (SMILES): CCN1CCC[C@@H](Nc2nnc(-c3ccc(Cl)cc3O)c3c2cnn3C)C1 [Example 12, 5-Chloro-2-[1-methyl-4-[[(3R)-1-ethyl-3-piperidyl]amino]pyrazolo[3,4-d]pyridazin-7-yl]phenol; 2,2,2-trifluoroacetic acid]
- IC50 (NLRP3 [1]): 2.2 nM
- IC50 (NLRP3 [2]): 0.014 nM

Structure (SMILES): CCN1CCC[C@@H](Nc2nnc(-c3c(O)cc(C(F)(F)F)cc3F)c3c2cnn3C)C1 [Example 15, 2-[4-[[(3R)-1-Ethyl-3-piperidyl]amino]-1-methyl-pyrazolo[3,4-d]pyridazin-7-yl]-3-fluoro-5-(trifluoromethyl)phenol]
- IC50 (NLRP3 [1]): 8.6 nM
- IC50 (NLRP3 [2]): 0.232 nM

Structure (SMILES): Cn1ncc2c(N[C@H]3C[C@@](C)(O)C3)nnc(-c3ccc(C(F)(F)F)cc3O)c21 [Example 16, 2-[4-[(3-Hydroxy-3-methyl-cyclobutyl)amino]-1-methyl-pyrazolo[3,4-d]pyridazin-7-yl]-5-(trifluoromethyl)phenol]
- IC50 (NLRP3 [1]): 362 nM

Structure (SMILES): CCN1CCC[C@@H](Nc2nnc(-c3ccc(OC(F)(F)F)cc3O)c3c2cnn3C)C1 [Example 10, 2-[4-[[(3R)-1-Ethyl-3-piperidyl]amino]-1-methyl-pyrazolo[3,4-d]pyridazin-7-yl]-5-(trifluoromethoxy)phenol; 2,2,2-trifluoroacetic acid]
- IC50 (NLRP3 [1]): 2.3 nM
- IC50 (NLRP3 [2]): 0.024 nM

Structure (SMILES): Cn1ncc2c(N[C@@H]3CCCC[C@H]3O)nnc(-c3ccc(C(F)(F)F)cc3O)c21 [Example 11, 2-[4-[[(1R,2R)-2-Hydroxycyclohexyl]amino]-1-methyl-pyrazolo[3,4-d]pyridazin-7-yl]-5-(trifluoromethyl)phenol; 2,2,2-trifluoroacetic acid]
- IC50 (NLRP3 [1]): 76 nM

Structure (SMILES): CCN1CCCC(Nc2nnc(-c3ccc(C(F)(F)F)cc3O)c3ccsc23)C1 (racemic) [Example 1, (rac)-2-[7-[(1-Ethyl-3-piperidyl)amino]thieno[2,3-d]pyridazin-4-yl]-5(trifluoromethyl)phenol; formic acid]
- IC50 (NLRP3 [1]): 1.6 nM
- IC50 (NLRP3 [2]): 0.088 nM

Structure (SMILES): CCN1C[C@@H](O)C[C@@H](Nc2nnc(-c3ccc4c(c3O)CCO4)c3c2cnn3C)C1 [Example 19, (3S,5R)-1-Ethyl-5-[[7-(4-hydroxy-2,3-dihydrobenzofuran-5-yl)-1-methyl-pyrazolo[3,4-d]pyridazin-4-yl]amino]piperidin-3-ol]
- IC50 (NLRP3 [1]): 46.6 nM
- IC50 (NLRP3 [2]): 0.3 nM
